# Source: the supplement of paper PMC10307832
# Experiments:
# Assay in all cases: relative viability (nuclei count vs DMSO), 5 days (fraction); higher = more cells survive
# NVP-TAE684 + Navitoclax = compound: COc1cc(N2CCC(N3CCN(C)CC3)CC2)ccc1Nc1ncc(Cl)c(Nc2ccccc2S(=O)(=O)C(C)C)n1 [NVP-TAE684] + CC1(C)CCC(c2ccc(Cl)cc2)=C(CN2CCN(c3ccc(C(=O)NS(=O)(=O)c4ccc(N[C@H](CCN5CCOCC5)CSc5ccccc5)c(S(=O)(=O)C(F)(F)F)c4)cc3)CC2)C1 [Navitoclax] (partner 0.5 µM)
# Outline: (§1)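 A single step with final 0.05% Triton X-100, 1% formaldehyde and 1 ug/ml Hoechst fixed the cells and stained nuclei 5 days after treatment. Lung cancer cell lines in 1536-well plates had been treated by pin tool the day after seeding with one drug alone or a fixed anchor-drug dose plus five library-drug doses (not always all listed) in √10 steps, and nuclei were counted on 4× images. Relative viability is the ratio of nuclei in treated wells to nuclei in vehicle wells, taken as the median of duplicate plates.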
# [1] = compound: C1=CC=C2C(=C1)N=C(S2)C(C#N)C3=NC(=NC=C3)NCCC4=CN=CC=C4 + CCNC(=O)c1noc(-c2cc(C(C)C)c(O)cc2O)c1-c1ccc(CN2CCOCC2)cc1 [Luminespib] (partner 0.01 µM)
# Outline: as §1
# Vandetanib + Trametinib = compound: COc1cc2/c(=N/c3ccc(Br)cc3F)nc[nH]c2cc1OCC1CCN(C)CC1 [Vandetanib] + CC(=O)Nc1cccc(-n2c(=O)n(C3CC3)c(=O)c3c(Nc4ccc(I)cc4F)n(C)c(=O)c(C)c32)c1 [Trametinib] (partner 0.02 µM)
# Outline: as §1
# CUDC-101 + OSI-027 = compound: C#Cc1cccc(Nc2ncnc3cc(OC)c(OCCCCCCC(=O)NO)cc23)c1 [CUDC-101] + COc1cccc2cc(-c3nc([C@H]4CC[C@H](C(=O)O)CC4)n4ncnc(N)c34)[nH]c12 [OSI-027] (partner 0.5 µM)
# Outline: as §1
Cell Line,relative viability (NVP-TAE684 + Navitoclax; first compound 0.2 µM),relative viability (NVP-TAE684 + Navitoclax; first compound 0.6325 µM),relative viability (NVP-TAE684 + Navitoclax; first compound 2 µM),relative viability ([1]; first compound 0.005 µM),relative viability ([1]; first compound 0.01581 µM),relative viability ([1]; first compound 0.05 µM),relative viability ([1]; first compound 0.1581 µM),relative viability ([1]; first compound 0.5 µM),relative viability (Vandetanib + Trametinib; first compound 0.02 µM),relative viability (Vandetanib + Trametinib; first compound 0.06325 µM),relative viability (Vandetanib + Trametinib; first compound 0.2 µM),relative viability (Vandetanib + Trametinib; first compound 0.6325 µM),relative viability (Vandetanib + Trametinib; first compound 2 µM),relative viability (CUDC-101 + OSI-027; first compound 0.01 µM),relative viability (CUDC-101 + OSI-027; first compound 0.03162 µM),relative viability (CUDC-101 + OSI-027; first compound 0.3162 µM),relative viability (CUDC-101 + OSI-027; first compound 1 µM),relative viability (CUDC-101 + OSI-027; first compound 0.1 µM)
H3255,0.6,0.417,0.382,0.779,0.884,0.916,1.11,0.944,0.614,0.577,0.604,0.463,0.245,0.571,0.556,0.395,0.204,
EMC-BAC-2,1.12,1.13,0.695,0.766,1.32,1.11,1.28,1.03,1.01,0.844,0.872,0.902,0.822,0.405,0.371,0.315,0.263,0.401
NCI-H2170,0.56,0.585,0.591,0.702,0.803,0.621,1.01,0.894,0.905,0.875,0.931,0.896,0.858,0.697,0.765,0.686,0.619,0.605
NCI-H2228,0.443,0.421,0.129,0.146,0.117,0.153,0.163,0.142,0.511,0.386,0.561,0.64,0.28,0.406,0.689,0.615,0.419,0.671
HCC-827,0.935,0.982,0.978,0.464,0.833,0.579,1.13,0.785,0.568,0.457,0.501,0.266,0.16,0.813,0.46,0.144,0.136,0.177
ChaGo-K-1,1.54,0.644,1.03,,0.678,0.594,0.693,0.67,0.878,0.87,0.253,0.929,0.866,0.527,0.579,0.538,0.43,0.541
LXF-289,0.966,0.966,0.803,0.544,0.74,0.661,0.875,0.677,0.681,0.663,0.606,0.69,0.677,0.751,0.885,0.918,0.57,0.766
HOP-62,1.23,1.13,1.1,0.749,0.948,0.861,0.973,0.898,0.354,0.368,0.36,0.4,0.363,0.862,0.842,0.924,0.567,0.896
LOU-NH91,0.644,0.607,0.463,0.274,0.34,0.336,0.333,0.43,0.775,0.731,0.725,0.716,0.673,0.753,0.633,0.514,0.443,0.523
NCI-H1915,0.795,0.806,0.752,0.464,0.933,0.826,0.876,0.601,0.29,0.291,0.29,0.329,0.292,0.627,0.597,0.551,0.404,0.591
NCI-H1395,1.79,1.01,1.02,0.878,0.641,0.822,0.679,0.819,1.06,1.01,0.956,1.13,1.05,0.746,0.629,0.727,0.508,0.628
COR-L23,1.12,0.943,0.544,0.404,0.825,0.727,1.06,0.614,0.619,0.517,0.695,0.71,0.641,0.786,0.724,0.695,0.39,0.792
NCI-H1734,0.844,0.91,0.769,,0.253,0.184,0.185,0.188,0.639,0.694,0.667,0.673,0.709,0.641,0.577,0.608,0.38,0.638
NCI-H2405,0.897,0.709,0.437,0.708,0.638,0.654,0.655,0.809,0.63,0.458,0.714,0.653,0.616,0.643,0.613,0.734,0.541,0.721
NCI-H2087,1.11,1.17,0.766,0.163,0.159,0.222,0.2,0.15,0.211,0.221,0.23,0.213,0.2,0.473,0.548,0.679,0.561,0.463
NCI-H1793,0.467,0.491,0.43,0.16,0.141,0.182,0.158,0.22,0.479,0.362,0.47,0.418,0.408,0.291,0.255,0.25,0.218,0.255
NCI-H2085,1.01,1.06,0.874,0.439,0.368,0.4,0.388,0.413,0.549,0.499,0.5,0.593,0.484,0.577,0.646,0.835,0.535,0.728
